Laboratory results: patent US20240158370A1, “CK1 alpha AND DUAL CK1 alpha / GSPT1 DEGRADING COMPOUNDS” (Innovo Therapeutics, Inc., priority 2022, published 2024)

Experiments:
[1] = biological target: GSPT1 (Homo sapiens, UniProt P15170+Q96SW2); assay: HiBiT degradation assay, GSPT1, Procedure A; format: cell-based; parameters: HiBit-GSPT1 KI HEK293(LgBit) Cells; host or cells: HEK293(LgBit) knock-in cells; conditions: six hours incubation
Outline: (§1)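 Six-hour treatment at 37° C, ten doses between 10 μM and 0.005 μM, then HiBiT lytic luminescence. Fitted DC50 and Ymin.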

[2] = biological target: T1, CK1α (Homo sapiens, UniProt P48729+Q96SW2); assay: HiBiT degradation assay, CK1α, Procedure A; format: cell-based; conditions: six hours incubation
T1 construct: CSNK1A1-HiBit KI HEK293(LgBit) Cells; host or cells: HEK293(LgBit) knock-in cells
Outline: as §1

Chain of GSPT1 (P15170 whole entry): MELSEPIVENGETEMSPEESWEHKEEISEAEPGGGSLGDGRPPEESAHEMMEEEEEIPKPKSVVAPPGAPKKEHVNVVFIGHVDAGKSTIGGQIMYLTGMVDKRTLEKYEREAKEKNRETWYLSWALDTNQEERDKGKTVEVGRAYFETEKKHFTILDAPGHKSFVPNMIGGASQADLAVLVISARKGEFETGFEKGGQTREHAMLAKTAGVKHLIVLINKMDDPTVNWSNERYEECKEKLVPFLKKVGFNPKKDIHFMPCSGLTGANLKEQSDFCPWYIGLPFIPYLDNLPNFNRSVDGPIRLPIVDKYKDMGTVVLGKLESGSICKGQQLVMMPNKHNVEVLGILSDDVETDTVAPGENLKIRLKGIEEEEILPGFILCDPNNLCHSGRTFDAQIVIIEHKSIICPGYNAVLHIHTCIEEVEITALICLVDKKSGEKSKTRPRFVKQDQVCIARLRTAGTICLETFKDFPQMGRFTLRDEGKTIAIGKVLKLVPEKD
Chain of GSPT1 (Q96SW2 whole entry): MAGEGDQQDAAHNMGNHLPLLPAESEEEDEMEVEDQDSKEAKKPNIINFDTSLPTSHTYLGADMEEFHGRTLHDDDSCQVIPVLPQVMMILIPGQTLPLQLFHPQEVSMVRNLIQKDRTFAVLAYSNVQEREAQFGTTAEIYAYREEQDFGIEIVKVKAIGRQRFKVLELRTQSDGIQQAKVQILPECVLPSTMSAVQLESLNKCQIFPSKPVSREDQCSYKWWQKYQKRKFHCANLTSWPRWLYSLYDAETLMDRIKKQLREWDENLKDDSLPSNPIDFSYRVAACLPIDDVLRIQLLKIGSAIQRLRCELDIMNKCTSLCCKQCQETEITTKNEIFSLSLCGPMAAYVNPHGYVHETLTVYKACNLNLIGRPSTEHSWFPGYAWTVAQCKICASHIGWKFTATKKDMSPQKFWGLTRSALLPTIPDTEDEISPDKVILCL
Chain of GSPT1 (Q16531 whole entry partner): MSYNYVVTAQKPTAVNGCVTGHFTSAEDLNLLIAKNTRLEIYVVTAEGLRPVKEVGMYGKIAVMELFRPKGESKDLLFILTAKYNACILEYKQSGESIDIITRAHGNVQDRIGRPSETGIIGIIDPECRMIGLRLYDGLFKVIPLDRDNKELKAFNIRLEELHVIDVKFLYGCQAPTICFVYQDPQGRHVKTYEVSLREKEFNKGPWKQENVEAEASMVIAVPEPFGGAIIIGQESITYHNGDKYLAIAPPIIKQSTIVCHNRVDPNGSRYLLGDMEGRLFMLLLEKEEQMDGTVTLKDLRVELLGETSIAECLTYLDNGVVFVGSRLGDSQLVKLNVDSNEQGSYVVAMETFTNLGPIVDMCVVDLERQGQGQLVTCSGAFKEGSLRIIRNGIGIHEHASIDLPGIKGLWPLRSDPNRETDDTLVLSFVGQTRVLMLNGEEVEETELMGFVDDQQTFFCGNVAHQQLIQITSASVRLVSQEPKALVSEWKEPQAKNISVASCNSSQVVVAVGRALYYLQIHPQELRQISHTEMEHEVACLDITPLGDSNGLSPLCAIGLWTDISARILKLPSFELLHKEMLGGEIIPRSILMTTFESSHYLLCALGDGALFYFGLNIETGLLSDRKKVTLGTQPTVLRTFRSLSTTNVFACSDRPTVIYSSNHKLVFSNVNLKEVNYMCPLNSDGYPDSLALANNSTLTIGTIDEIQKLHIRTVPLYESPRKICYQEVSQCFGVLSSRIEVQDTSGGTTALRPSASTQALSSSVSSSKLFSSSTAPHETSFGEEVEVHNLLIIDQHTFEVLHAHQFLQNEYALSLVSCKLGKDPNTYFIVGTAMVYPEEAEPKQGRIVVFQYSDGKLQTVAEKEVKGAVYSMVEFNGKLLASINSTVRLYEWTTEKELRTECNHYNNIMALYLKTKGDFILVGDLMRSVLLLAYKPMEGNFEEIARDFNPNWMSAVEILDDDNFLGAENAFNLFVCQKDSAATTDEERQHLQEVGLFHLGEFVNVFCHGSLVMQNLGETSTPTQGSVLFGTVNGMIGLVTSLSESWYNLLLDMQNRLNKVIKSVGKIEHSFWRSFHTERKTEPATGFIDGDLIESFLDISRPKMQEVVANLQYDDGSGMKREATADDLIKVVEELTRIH
T1 sequence (P48729 whole entry): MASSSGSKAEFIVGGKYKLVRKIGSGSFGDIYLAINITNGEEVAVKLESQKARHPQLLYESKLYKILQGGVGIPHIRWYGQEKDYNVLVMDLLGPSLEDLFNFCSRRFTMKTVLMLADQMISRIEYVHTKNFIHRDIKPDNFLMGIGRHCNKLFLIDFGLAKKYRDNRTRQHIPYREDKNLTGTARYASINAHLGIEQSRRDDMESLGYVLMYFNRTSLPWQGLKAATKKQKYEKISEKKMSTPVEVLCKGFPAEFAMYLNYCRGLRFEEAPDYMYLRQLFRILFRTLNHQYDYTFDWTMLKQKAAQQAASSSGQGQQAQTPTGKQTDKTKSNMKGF
T1 sequence (Q96SW2 whole entry): as the sequence (Q96SW2 whole entry) above
T1 sequence (Q16531 whole entry partner): as the sequence (Q16531 whole entry partner) above

DC50 [1]	GSPT1 Ymin [1]	CK1α Ymin [2]	DC50 [2]	SMILES
< 25 nM	F (F = >75-100% remaining)	D (D = >10- 25% remaining)	< 25 nM	COc1ncccc1-c1c(-c2ccc3c(c2)CN(C2CCC(=O)NC2=O)C3=O)ncn1C (stereo not shown) [Example 327]
≥ 25 nM	F (F = >75-100% remaining)	D (D = >10- 25% remaining)	≥ 25 nM	Cn1cnc(-c2ccc3c(c2)CN(C2CCC(=O)NC2=O)C3=O)c1-c1ccn(C)c(=O)c1 (stereo not shown) [Example 328]
≥ 25 nM	E (E = >25-75% remaining)	C (C = 0-10% remaining)	< 25 nM	COc1ccc(-c2c(-c3ccc4c(c3)CN(C3CCC(=O)NC3=O)C4=O)ncn2C)cn1 (stereo not shown) [Example 329]
≥ 25 nM	F (F = >75-100% remaining)	E (E = >25-75% remaining)	< 25 nM	CC(C)n1cc(-c2c(-c3ccc4c(c3)CN(C3CCC(=O)NC3=O)C4=O)ncn2C)cn1 (stereo not shown) [Example 330]
≥ 25 nM	F (F = >75-100% remaining)	D (D = >10- 25% remaining)	< 25 nM	Cn1cnc(-c2ccc3c(c2)CN(C2CCC(=O)NC2=O)C3=O)c1-c1cnn(-c2ccccc2)c1 (stereo not shown) [Example 332]
≥ 25 nM	E (E = >25-75% remaining)	E (E = >25-75% remaining)	< 25 nM	O=C1CCC(N2Cc3cc(-c4cnn(C(F)(F)F)c4-c4ccccc4)ccc3C2=O)C(=O)N1 (stereo not shown) [Example 333, 3-(1-oxo-5-(5-phenyl-1-(trifluoromethyl)-1H-pyrazol-4-yl)isoindolin-2-yl)piperidine-2,6-dione]
≥ 25 nM	F (F = >75-100% remaining)	D (D = >10- 25% remaining)	≥ 25 nM	CC(F)(F)Cn1ncc(-c2ccc3c(c2)CN(C2CCC(=O)NC2=O)C3=O)c1-c1ccccc1 (stereo not shown) [Example 336, 3-(5-(1-(2,2-difluoropropyl)-5-phenyl-1H-pyrazol-4-yl)-1-oxoisoindolin-2-yl)piperidine-2,6-dione]
≥ 25 nM	F (F = >75-100% remaining)	D (D = >10- 25% remaining)	≥ 25 nM	O=C1CCC(N2Cc3cc(-c4cc(-c5ccccc5)n(C(F)F)n4)ccc3C2=O)C(=O)N1 (stereo not shown) [Example 337, 3-(5-(1-(difluoromethyl)-5-phenyl-1H-pyrazol-3-yl)-1-oxoisoindolin-2-yl)piperidine-2,6-dione]
≥ 25 nM	F (F = >75-100% remaining)	C (C = 0-10% remaining)	< 25 nM	Cc1c(-c2ccc3c(c2)CN(C2CCC(=O)NC2=O)C3=O)nc(-c2ccccc2)n1C (stereo not shown) [Example 338, 3-(5-(1,5-dimethyl-2-phenyl-1H-imidazol-4-yl)-1-oxoisoindolin-2-yl)piperidine-2,6-dione]
< 25 nM	F (F = >75-100% remaining)	E (E = >25-75% remaining)	< 25 nM	Cn1ncc(-c2ccc3c(c2)CN(C2CCC(=O)NC2=O)C3=O)c1-c1ccc(OC(F)(F)F)cc1 (stereo not shown) [Example 340, 3-(5-(1-methyl-5-(4-(trifluoromethoxy)phenyl)-1H-pyrazol-4-yl)-1-oxoisoindolin-2-yl)piperidine-2,6-dione]
≥ 25 nM	F (F = >75-100% remaining)	E (E = >25-75% remaining)	< 25 nM	COc1ccc(-c2nn(C(F)F)cc2-c2ccc3c(c2)CN(C2CCC(=O)NC2=O)C3=O)cc1F (stereo not shown) [Example 341, 3-(5-(1-(difluoromethyl)-3-(3-fluoro-4-methoxyphenyl)-1H-pyrazol-4-yl)-1-oxoisoindolin-2-yl)piperidine-2,6-dione]
≥ 25 nM	F (F = >75-100% remaining)	F (F = >75-100% remaining)	≥ 25 nM	Cn1cnc(-c2ccc3c(c2)CN(C2CCC(=O)NC2=O)C3=O)c1-c1ccc(C#N)s1 (stereo not shown) [Example 342]
≥ 25 nM	F (F = >75-100% remaining)	C (C = 0-10% remaining)	< 25 nM	Cn1cnc(-c2ccc3c(c2)CN(C2CCC(=O)NC2=O)C3=O)c1-c1cccc(N)c1 (stereo not shown) [Example 343]
≥ 25 nM	F (F = >75-100% remaining)	E (E = >25-75% remaining)	< 25 nM	Cc1ccsc1-c1c(-c2ccc3c(c2)CN(C2CCC(=O)NC2=O)C3=O)ncn1C (stereo not shown) [Example 344]
≥ 25 nM	F (F = >75-100% remaining)	E (E = >25-75% remaining)	< 25 nM	COc1cccc(-c2c(-c3ccc4c(c3)CN(C3CCC(=O)NC3=O)C4=O)ncn2C)c1 (stereo not shown) [Example 345]
≥ 25 nM	F (F = >75-100% remaining)	D (D = >10- 25% remaining)	< 25 nM	Cn1cnc(-c2ccc3c(c2)CN(C2CCC(=O)NC2=O)C3=O)c1-c1ccc2[nH]ccc2c1 (stereo not shown) [Example 346]
≥ 25 nM	F (F = >75-100% remaining)	E (E = >25-75% remaining)	< 25 nM	Cn1cnc(-c2ccc3c(c2)CN(C2CCC(=O)NC2=O)C3=O)c1-c1ccccc1C1CC1 (stereo not shown) [Example 347]

DC50 [1]	GSPT1 Ymin [1]	CK1α Ymin [2]	DC50 [2]	SMILES
≥ 25 nM	F (F = >75-100% remaining)	E (E = >25-75% remaining)	< 25 nM	Cn1cnc(-c2ccc3c(c2)CN(C2CCC(=O)NC2=O)C3=O)c1-c1ccsc1Cl (stereo not shown) [Example 348]
< 25 nM	F (F = >75-100% remaining)	C (C = 0-10% remaining)	< 25 nM	Cn1cnc(-c2ccc3c(c2)CN(C2CCC(=O)NC2=O)C3=O)c1-c1cccc2c1OCC2 (stereo not shown) [Example 349]
≥ 25 nM	F (F = >75-100% remaining)	D (D = >10- 25% remaining)	≥ 25 nM	Cn1cnc(-c2ccc3c(c2)CN(C2CCC(=O)NC2=O)C3=O)c1-c1cc(F)ccc1Cl (stereo not shown) [Example 350]
≥ 25 nM	F (F = >75-100% remaining)	D (D = >10- 25% remaining)	≥ 25 nM	COc1cc(-c2c(-c3ccc4c(c3)CN(C3CCC(=O)NC3=O)C4=O)ncn2C)ccc1Cl (stereo not shown) [Example 351]
≥ 25 nM	F (F = >75-100% remaining)	C (C = 0-10% remaining)	< 25 nM	Cn1cnc(-c2ccc3c(c2)CN(C2CCC(=O)NC2=O)C3=O)c1-c1cccc(-c2cccnc2)c1 (stereo not shown) [Example 352]
< 25 nM	F (F = >75-100% remaining)	C (C = 0-10% remaining)	< 25 nM	Cn1cnc(-c2ccc3c(c2)CN(C2CCC(=O)NC2=O)C3=O)c1-c1ccc(N2CCOCC2)cc1 (stereo not shown) [Example 353]
< 25 nM	F (F = >75-100% remaining)	E (E = >25-75% remaining)	< 25 nM	Cn1cnc(-c2ccc3c(c2)CN(C2CCC(=O)NC2=O)C3=O)c1-c1ccc(S(=O)(=O)N2CCCC2)cc1 (stereo not shown) [Example 354]
≥ 25 nM	F (F = >75-100% remaining)	E (E = >25-75% remaining)	< 25 nM	CN1CCN(c2ccc(-c3c(-c4ccc5c(c4)CN(C4CCC(=O)NC4=O)C5=O)ncn3C)cc2)CC1 (stereo not shown) [Example 355]
≥ 25 nM	F (F = >75-100% remaining)	F (F = >75-100% remaining)	≥ 25 nM	Cn1cnc(-c2ccc3c(c2)CN(C2CCC(=O)NC2=O)C3=O)c1-c1ccc(NC(=O)c2ccccc2)cc1 (stereo not shown) [Example 356]
≥ 25 nM	F (F = >75-100% remaining)	C (C = 0-10% remaining)	< 25 nM	CN1CCN(C(=O)c2cccc(-c3c(-c4ccc5c(c4)CN(C4CCC(=O)NC4=O)C5=O)ncn3C)c2)CC1 (stereo not shown) [Example 357]
≥ 25 nM	F (F = >75-100% remaining)	E (E = >25-75% remaining)	< 25 nM	COc1ccc(-c2c(-c3ccc4c(c3)CN(C3CCC(=O)NC3=O)C4=O)ncn2C)cc1OCc1ccccc1 (stereo not shown) [Example 358]
≥ 25 nM	F (F = >75-100% remaining)	E (E = >25-75% remaining)	< 25 nM	Cn1cnc(-c2ccc3c(c2)CN(C2CCC(=O)NC2=O)C3=O)c1-c1ccc(OCCCN2CCOCC2)cc1 (stereo not shown) [Example 359]
≥ 25 nM	F (F = >75-100% remaining)	D (D = >10- 25% remaining)	< 25 nM	Cn1ncc(-c2ccc3c(c2)CN(C2CCC(=O)NC2=O)C3=O)c1-c1cccnc1 (stereo not shown) [Example 360]
≥ 25 nM	F (F = >75-100% remaining)	E (E = >25-75% remaining)	< 25 nM	Cn1ncc(-c2ccc3c(c2)CN(C2CCC(=O)NC2=O)C3=O)c1-c1ccncc1 (stereo not shown) [Example 361]
≥ 25 nM	F (F = >75-100% remaining)	E (E = >25-75% remaining)	< 25 nM	Cn1ncc(-c2ccc3c(c2)CN(C2CCC(=O)NC2=O)C3=O)c1-c1cncnc1 (stereo not shown) [Example 362]
< 25 nM	F (F = >75-100% remaining)	C (C = 0-10% remaining)	< 25 nM	Cn1ccc(-c2c(-c3ccc4c(c3)CN(C3CCC(=O)NC3=O)C4=O)cnn2C)c1 (stereo not shown) [Example 363]
≥ 25 nM	F (F = >75-100% remaining)	D (D = >10- 25% remaining)	≥ 25 nM	Cc1occc1-c1c(-c2ccc3c(c2)CN(C2CCC(=O)NC2=O)C3=O)cnn1C (stereo not shown) [Example 364]
